Data: US20250290117A1, “MOLECULAR PHENOTYPIC ANTIMICROBIAL SUSCEPTIBILITY TESTING” (priority 2024, published 2025)

Experiments:
pathogen of the specimen = test: Molecular phenotypic antimicrobial susceptibility test with direct PCR at various incubation timepoints (Table 7); format: cell-based
Method: Detection of Molecular Phenotypic Antimicrobial Susceptibility. Disclosed herein are the methods for the detection of phenotypic antimicrobial susceptibility via molecular methods. The present invention describes how a specimen 100 with a known microbial load is incubated and then exposed to a panel of antimicrobial agents to determine sensitivity (prevention of growth) or resistance (allowance of growth) to the specific antimicrobial agents tested utilizing molecular methods. Sample Collection. Specimens 100 are collected from patients using sterile collection processes that are employed in routine clinical care. Specimens are transported to the testing facility in boric acid preservative. […] The process for pathogen isolation includes steps of harvesting the pathogen (e.g., via centrifugation), isolating pathogen DNA via a DNA isolation and/or purification kit, and performing PCR on the pathogen DNA via PCR components (e.g., primers, enzymes, buffers) as would be known to the skilled artisan. […] This aliquot is used for antimicrobial susceptibility testing if indicated based on the pathogen detection results. […] Specimens 100 with lower pathogen loads could also be utilized in the antibiotic susceptibility phase of testing with or without a longer incubation period. […] Antimicrobial solutions are prepared at known concentrations. The specific antimicrobials and their concentrations are selected based on the pathogen of interest and the described antimicrobial resistance breakpoints for that specimen pathogen and antimicrobial combination. These antimicrobials have been selected based on those commonly utilized by healthcare providers in routine clinical care for the specific type of suspected infection. The number and types of antimicrobials utilized can be customized based on the infection source, pathogen detected, patient-specific factors such as allergies or other health conditions (e.g., chronic kidney disease or concurrent medication use), or healthcare provider preferences such as antimicrobial availability or cost. The antimicrobial solutions are prepared in liquid culture media (such as Muller Hinton Broth) to achieve the desired antimicrobial concentration and are then stored at −80° C. until use. For a given specimen, each antimicrobial is tested at a single or multiple antimicrobial concentration(s) which is its established breakpoints for sensitivity. The antimicrobial solutions are prepared and plated out for each specific pathogen. […] This allows for evaluation of pathogen load when no antimicrobial is present. Specimen Exposure to Antimicrobial Agents. The 1 mL aliquot of the specimen 100 previously mixed with culture media and incubated is obtained. Using optical density measurements as a guide, the specimen 100 is diluted to 0.5 McFarland. […] Antimicrobial exposure plates are typically placed into an incubator for 12-16 hours. […] Nucleic Acid Amplification of Antimicrobial Agent Exposed Pathogens. The antimicrobial exposure plate is removed after the period of incubation. The specimen then undergoes a purification or lysis step. For example, the specimen may undergo a purification step (e.g., magnetic bead-based or other separation protocol to isolate genetic material). In another example, the specimen may undergo a cell lysis step. For example, buffer (e.g., lysis buffer) may be added and incubated in the thermal cycler for preparation for direct PCR. Next, the specimen may undergo a polymerase chain reaction (PCR) testing protocol, whereby a semi-quantitative PCR method is utilized. This may be completed either with or without a specific extraction protocol step. The pathogens can be individually targeted and detected, or a universal genetic sequence can be utilized to detect the antimicrobial susceptibility of the specimen as a whole. The control wells are utilized as a threshold for determining antimicrobial sensitivity or resistance. […] Antimicrobial Susceptibility Result Interpretation.

M. morganii = test: Molecular phenotypic antimicrobial susceptibility test, specimen with two detected pathogens incubated together without isolation; format: cell-based, Morganella morganii; conditions: M. morganii in specimen with two detected pathogens (E. coli and M. morganii) incubated together; for Ct of Sensitive Breakpoint: Ct of controls (average) 19.99; for Molecular Antimicrobial Susceptibility Result: at sensitive breakpoint
Method: Detection of Molecular Phenotypic Antimicrobial Susceptibility. Disclosed herein are the methods for the detection of phenotypic antimicrobial susceptibility via molecular methods. The present invention describes how a specimen 100 with a known microbial load is incubated and then exposed to a panel of antimicrobial agents to determine sensitivity (prevention of growth) or resistance (allowance of growth) to the specific antimicrobial agents tested utilizing molecular methods.
Sample Collection. Specimens 100 are collected from patients using sterile collection processes that are employed in routine clinical care. Specimens are transported to the testing facility in boric acid preservative. Specimens 100 are subsequently divided into a first sample 104 and a second sample 108.
Preparation of the Specimens for Testing. The specimens 100 are put through a pathogen identification process using PCR technology (e.g., using the first sample 104). The process for pathogen isolation includes steps of harvesting the pathogen (e.g., via centrifugation), isolating pathogen DNA via a DNA isolation and/or purification kit, and performing PCR on the pathogen DNA via PCR components (e.g., primers, enzymes, buffers) as would be known to the skilled artisan. Simultaneously, an additional aliquot of the same specimen (e.g., the second sample 108) is placed with liquid culture media and incubated for 4-6 hours. This aliquot is used for antimicrobial susceptibility testing if indicated based on the pathogen detection results. After pathogen identification is completed and if more than 10,000 cells/mL of bacteria (e.g., eligible bacteria) are detected in the source specimen, the second sample 108 then enters the antimicrobial susceptibility phase of testing. Specimens 100 with lower pathogen loads could also be utilized in the antibiotic susceptibility phase of testing with or without a longer incubation period.
Preparation of Antimicrobial Susceptibility Testing Plates. Antimicrobial solutions are prepared at known concentrations. The specific antimicrobials and their concentrations are selected based on the pathogen of interest and the described antimicrobial resistance breakpoints for that specimen pathogen and antimicrobial combination. These antimicrobials have been selected based on those commonly utilized by healthcare providers in routine clinical care for the specific type of suspected infection. The number and types of antimicrobials utilized can be customized based on the infection source, pathogen detected, patient-specific factors such as allergies or other health conditions (e.g., chronic kidney disease or concurrent medication use), or healthcare provider preferences such as antimicrobial availability or cost.
The antimicrobial solutions are prepared in liquid culture media (such as Muller Hinton Broth) to achieve the desired antimicrobial concentration and are then stored at −80° C. until use. For a given specimen, each antimicrobial is tested at a single or multiple antimicrobial concentration(s) which is its established breakpoints for sensitivity. The antimicrobial solutions are prepared and plated out for each specific pathogen. This allows ease of use on the day of testing after defrosting the plate 112. Table 1, which illustrates the results of molecular phenotypic antimicrobial susceptibility testing when more than one organism is present in the source specimen, provides an example of an antimicrobial plate 112 prepared for this purpose. Of note, control wells containing only culture media are present on all plates 112. This allows for evaluation of pathogen load when no antimicrobial is present.
Specimen Exposure to Antimicrobial Agents. The 1 mL aliquot of the specimen 100 previously mixed with culture media and incubated is obtained. Using optical density measurements as a guide, the specimen 100 is diluted to 0.5 McFarland. […]

[1] = E. coli isolate 1189, antibiotic incubation time 4 hours
[2] = E. coli isolate 1189, antibiotic incubation time 4 hours, control average Ct […]
[3] = E. coli isolate 1189, antibiotic incubation time 6 hours
[4] = E. coli isolate 1189, antibiotic incubation time 6 hours, control average Ct 16.992
[5] = E. coli isolate 1189, antibiotic incubation time 8 hours
[6] = E. coli isolate 1189, antibiotic incubation time 8 hours, control average Ct […]
[7] = E. coli isolate 1189, antibiotic incubation time 10 hours
[8] = E. coli isolate 1189, antibiotic incubation time 10 hours, control average Ct 15.995
[9] = E. coli isolate 1189, antibiotic incubation time 12 hours
[10] = E. coli isolate 1189, antibiotic incubation time 12 hours, control average Ct 15.495
[11] = E. coli isolate 1189, antibiotic incubation time 14 hours
[12] = E. coli isolate 1189, antibiotic incubation time 14 hours, control average Ct 15.826
[13] = E. coli isolate 1189, antibiotic incubation time 16 hours
[14] = E. coli isolate 1189, antibiotic incubation time 16 hours, control average Ct 14.880

Compound: C[C@H]1COc2c(N3CCN(C)CC3)c(F)cc3c(=O)c(C(=O)O)cn1c23 [Levofloxacin]
- Molecular Antimicrobial Susceptibility Result (pathogen of the specimen; [1]): Sensitive (Antimicrobial wells with pathogen load detected below the control wells (typically >2 cycle thresholds later) may be reported as Sensitive)
- Ct at Sensitive Breakpoint (pathogen of the specimen; [2]): 27.130
- Molecular Antimicrobial Susceptibility Result (pathogen of the specimen; [3]): Sensitive (Antimicrobial wells with pathogen load detected below the control wells (typically >2 cycle thresholds later) may be reported as Sensitive)
- Ct at Sensitive Breakpoint (pathogen of the specimen; [4]): 26.759
- Molecular Antimicrobial Susceptibility Result (pathogen of the specimen; [5]): Sensitive (Antimicrobial wells with pathogen load detected below the control wells (typically >2 cycle thresholds later) may be reported as Sensitive)
- Ct at Sensitive Breakpoint (pathogen of the specimen; [6]): 27.068
- Molecular Antimicrobial Susceptibility Result (pathogen of the specimen; [7]): Sensitive (Antimicrobial wells with pathogen load detected below the control wells (typically >2 cycle thresholds later) may be reported as Sensitive)
- Ct at Sensitive Breakpoint (pathogen of the specimen; [8]): 27.170
- Molecular Antimicrobial Susceptibility Result (pathogen of the specimen; [9]): Sensitive (Antimicrobial wells with pathogen load detected below the control wells (typically >2 cycle thresholds later) may be reported as Sensitive)
- Ct at Sensitive Breakpoint (pathogen of the specimen; [10]): 26.835
- Molecular Antimicrobial Susceptibility Result (pathogen of the specimen; [11]): Sensitive (Antimicrobial wells with pathogen load detected below the control wells (typically >2 cycle thresholds later) may be reported as Sensitive)
- Ct at Sensitive Breakpoint (pathogen of the specimen; [12]): 27.545
- Molecular Antimicrobial Susceptibility Result (pathogen of the specimen; [13]): Sensitive (Antimicrobial wells with pathogen load detected below the control wells (typically >2 cycle thresholds later) may be reported as Sensitive)
- Ct at Sensitive Breakpoint (pathogen of the specimen; [14]): 27.791
- Ct of Sensitive Breakpoint (M. morganii): 29.62
- Molecular Antimicrobial Susceptibility Result (M. morganii): Sensitive (Antimicrobial wells with pathogen load detected below the control wells (typically >2 cycle thresholds later) may be reported as Sensitive)

Compound: O=C1CN(/N=C/c2ccc([N+](=O)[O-])o2)C(=O)N1 [Nitrofurantoin]
- Molecular Antimicrobial Susceptibility Result (pathogen of the specimen; [1]): Sensitive (Antimicrobial wells with pathogen load detected below the control wells (typically >2 cycle thresholds later) may be reported as Sensitive)
- Ct at Sensitive Breakpoint (pathogen of the specimen; [2]): 27.265
- Molecular Antimicrobial Susceptibility Result (pathogen of the specimen; [3]): Sensitive (Antimicrobial wells with pathogen load detected below the control wells (typically >2 cycle thresholds later) may be reported as Sensitive)
- Ct at Sensitive Breakpoint (pathogen of the specimen; [4]): 27.430
- Molecular Antimicrobial Susceptibility Result (pathogen of the specimen; [5]): Sensitive (Antimicrobial wells with pathogen load detected below the control wells (typically >2 cycle thresholds later) may be reported as Sensitive)
- Ct at Sensitive Breakpoint (pathogen of the specimen; [6]): 28.823
- Molecular Antimicrobial Susceptibility Result (pathogen of the specimen; [7]): Sensitive (Antimicrobial wells with pathogen load detected below the control wells (typically >2 cycle thresholds later) may be reported as Sensitive)
- Ct at Sensitive Breakpoint (pathogen of the specimen; [8]): 27.170
- Molecular Antimicrobial Susceptibility Result (pathogen of the specimen; [9]): Sensitive (Antimicrobial wells with pathogen load detected below the control wells (typically >2 cycle thresholds later) may be reported as Sensitive)
- Ct at Sensitive Breakpoint (pathogen of the specimen; [10]): 26.777
- Molecular Antimicrobial Susceptibility Result (pathogen of the specimen; [11]): Sensitive (Antimicrobial wells with pathogen load detected below the control wells (typically >2 cycle thresholds later) may be reported as Sensitive)
- Ct at Sensitive Breakpoint (pathogen of the specimen; [12]): 26.788
- Molecular Antimicrobial Susceptibility Result (pathogen of the specimen; [13]): Sensitive (Antimicrobial wells with pathogen load detected below the control wells (typically >2 cycle thresholds later) may be reported as Sensitive)
- Ct at Sensitive Breakpoint (pathogen of the specimen; [14]): 24.548
- Ct of Sensitive Breakpoint (M. morganii): 33.37
- Molecular Antimicrobial Susceptibility Result (M. morganii): Sensitive (Antimicrobial wells with pathogen load detected below the control wells (typically >2 cycle thresholds later) may be reported as Sensitive)

Compound: Ampicillin/Sulbactam
- Ct of Sensitive Breakpoint (M. morganii): 22.00
- Molecular Antimicrobial Susceptibility Result (M. morganii): Sensitive (Antimicrobial wells with pathogen load detected below the control wells (typically >2 cycle thresholds later) may be reported as Sensitive)

Compound: CN(C)[C@@H]1C(O)=C(C(N)=O)C(=O)[C@@]2(O)C(O)=C3C(=O)c4c(O)cccc4[C@@](C)(O)[C@H]3C[C@@H]12 [Tetracycline]
- Ct of Sensitive Breakpoint (M. morganii): 31.64
- Molecular Antimicrobial Susceptibility Result (M. morganii): Sensitive (Antimicrobial wells with pathogen load detected below the control wells (typically >2 cycle thresholds later) may be reported as Sensitive)

Compound: C[C@@H]1O[C@@H]1P(=O)(O)O [Fosfomycin]
- Ct of Sensitive Breakpoint (M. morganii): 33.43
- Molecular Antimicrobial Susceptibility Result (M. morganii): Sensitive (Antimicrobial wells with pathogen load detected below the control wells (typically >2 cycle thresholds later) may be reported as Sensitive)
